In patent publication US7601746B2 (Shionogi & Co., Ltd., priority 2003, dated 2009) one finds EC50 data, which are given here for 26 compounds.

One may read the EC50 as the concentration needed to bring the measured effect to its halfway point.

The assay has as its target T1, human TPO receptor (hTPOR) (Homo sapiens, UniProt P40238).
T1 construct: expressed in transfected cells; host or cells: BaF-B03 (murine IL-3 dependent cell line)
T1 sequence (P40238 26-635): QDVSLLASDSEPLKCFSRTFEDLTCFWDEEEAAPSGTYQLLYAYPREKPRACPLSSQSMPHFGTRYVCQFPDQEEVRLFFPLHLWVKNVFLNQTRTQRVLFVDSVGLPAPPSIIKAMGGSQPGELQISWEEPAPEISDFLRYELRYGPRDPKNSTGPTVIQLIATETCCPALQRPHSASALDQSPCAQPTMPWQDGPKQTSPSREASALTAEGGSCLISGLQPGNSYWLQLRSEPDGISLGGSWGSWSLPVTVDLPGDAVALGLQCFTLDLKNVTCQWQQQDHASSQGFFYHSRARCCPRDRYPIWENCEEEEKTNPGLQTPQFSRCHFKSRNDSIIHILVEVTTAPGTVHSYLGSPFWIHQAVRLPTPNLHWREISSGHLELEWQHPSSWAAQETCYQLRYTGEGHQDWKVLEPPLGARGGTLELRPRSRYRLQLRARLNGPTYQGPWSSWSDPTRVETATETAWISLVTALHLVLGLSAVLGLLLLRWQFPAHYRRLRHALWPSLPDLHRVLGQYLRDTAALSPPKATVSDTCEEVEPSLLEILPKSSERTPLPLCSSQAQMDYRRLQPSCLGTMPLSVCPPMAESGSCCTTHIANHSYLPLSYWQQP
The assay can be described thus: Thrombopoietic activity: proliferation of TPO dependent BaF/hTPOR cells (WST-1, absorbance at 450 nm). In kind it is cell-based. As to conditions: 20 h + 4 h WST-1, ED50 = half concentration of the concentration showing the maximum thrombopoietic activity, Table 1. An excerpt: The TPO dependent BaF/hTPOR cell line which was established by introducing human TPO receptor (hTPOR) into BaF-B03 cells according to Collins et al (J. Cell. Physiol., 137:293-298 (1988)) was used to test the thrombopoietic activity of the present compound. The DNA sequences and encoded peptide sequences for human hTPOR have been described by Vigon et al (Proc. Natl. Acad. Sci. USA, 89:5640-5644 (1992)). TPO dose not have any ability to support proliferation of interlukin-3 dependent parental cell line BaF-B03. BAF/hTPOR cells were maintained in RPMI medium and WEHI-3B conditioned medium as a source of murine interleukin-3 (IL-3). These cells were washed and resuspended in RPMI medium without a source of murine IL-3 and seeded into each well of 96-well microtiter plates at a density of 5×10^4 cells per well in the absence or presence of various concentration of hTPO or the present compound. After incubation at 37° C. for 20 hours in the 5% CO2 incubator, 10% WST-1 reagent (Takara Biomedicals, Japan) was added to each wells and the cells were further incubated for 4 hours. The absorbance at 450 nm was measured. Tables 1 and 2 exemplify the ED50 for tested compounds of the present invention, wherein the ED50 is the half concentration of the concentration showing the maximum thrombopoietic activity.
(In general: Tetrazolium assays rely on reduction of a dye to a coloured formazan, in cell work by metabolically active cells.)
With `C/C(=C\c1c(Cl)cc(C(=O)Nc2nc3c(s2)COc2c-3cccc2C(C)C)cc1Cl)C(=O)O` [Compound A1312, (E)-3-[2,6-dichloro-4-(6-isopropyl-4H-chromeno[4,3-d]thiazol-2-ylcabamoyl)phenyl]-2-methylacrylic acid], the EC50 turned out to be 10.8 nM. With `CCCCOC(CCCC)c1cccc(-c2csc(NC(=O)c3cc(Cl)c(C=C(C)C(=O)O)c(Cl)c3)n2)c1F` (centres unmarked) [Compound B87, 3-(4-{4-[3-(1-n-butyloxypentyl)-2-fluorophenyl]thiazol-2-ylcarbamoyl}-2,6-dichlorophenyl)-2-methylacrylic acid], the EC50 was 0.62 nM. In the case of `C/C(=C\c1c(F)cc(C(=O)Nc2nc3c(s2)COc2c(CCC(C)(C)C)cccc2-3)cc1F)C(=O)O` [Compound A1315, (E)-3-{4-[6-(3,3-dimethylbutyl)-4H-chromeno[4,3-d]thiazol-2-ylcabamoyl]-2,6-difluorophenyl}-2-methylacrylic acid], the EC50 is 12.5 nM. The value for `COc1c(COCCCC(C)C)cccc1-c1csc(NC(=O)c2cc(F)c(/C=C(\C)C(=O)O)c(F)c2)n1` [Compound B1938] was 12.7 nM.

On to `CCC(CC)COCCCc1cccc(-c2csc(NC(=O)c3cc(Cl)c(C=C(C)C(=O)O)c(Cl)c3)n2)c1F` [Compound B88, 3-[2,6-dichloro-4-(4-[3-[3-(2-ethylbutyloxy)propyl]-2-fluorophenyl]thiazol-2-ylcarbamoyl)phenyl]-2-methylacrylic acid], for which the EC50 worked out at 3.11 nM. The value for `COc1c(CCCOCCC(C)C)cccc1-c1csc(NC(=O)c2cc(Cl)c(/C=C(\C)C(=O)O)c(Cl)c2)n1` [Compound B1852, (E)-3-[2,6-dichloro-4-(4-{2-methyloxy-3-[3-(3-methylbutyloxy)propyl]phenyl}thiazol-2-ylcarbamoyl)phenyl]-2-methylacrylic acid] was 16.5 nM. With `COc1c(OCCC2CCCCC2)cccc1-c1csc(NC(=O)c2cc(F)c(/C=C(\C)C(=O)O)c(F)c2)n1` [Compound B1916], the EC50 was 12.9 nM. The value for `CCCCCOC(CC)c1cccc(-c2csc(NC(=O)c3cc(F)c(C=C(C)C(=O)O)c(F)c3)n2)c1F` (centres unmarked) [Compound B19, 3-(2,6-difluoro-4-{4-[2-fluoro-3-(1-n-pentyloxypropyl)phenyl]thiazol-2-ylcarbamoyl}phenyl)-2-methylacrylic acid] was 0.73 nM; that for `COc1c(CCCOCC(C)C)cccc1-c1csc(NC(=O)c2cc(F)c(/C=C(\C)C(=O)O)c(F)c2)n1` [Compound B1877, (E)-3-(2,6-difluoro-4-{4-[3-(3-isobuyloxypropyl)-2-methyloxyphenyl]thiazol-2-ylcarbamoyl}phenyl)-2-methylacrylic acid] was 13 nM; that for `CCCC(CCc1cccc2c1CCc1sc(NC(=O)c3cc(F)c(C=C(C)C(=O)O)c(F)c3)nc1-2)OC` (centres unmarked) [Compound A1, 3-{2,6-difluoro-4-[4,5-dihydro-6-(3-methyloxyhexyl)naphtho[1,2-d]thiazol-2-ylcarbamoyl]phenyl}-2-methylacrylic acid] was 2.27 nM. On to `CCCCCCCCCCC(OC)c1cccc(-c2csc(NC(=O)c3cc(F)c(/C=C(\C)C(=O)O)c(F)c3)n2)c1OC` (centres unmarked) [Compound B355, (E)-3-(2,6-difluoro-4-{4-[2-methyloxy-3-(1-methyloxyundecyl)phenyl]thiazol-2-ylcarbamoyl}phenyl)-2-methylacrylic acid], for which the EC50 was determined as 3.3 nM. Next, `CCCCCOC(c1cccc(-c2csc(NC(=O)c3cc(F)c(C=C(C)C(=O)O)c(F)c3)n2)c1F)C(C)(C)C` (centres unmarked) [Compound B15, 3-(2,6-difluoro-4-{4-[3-(2,2-dimethyl-1-n-pentyloxypropyl)-2-fluorophenyl]thiazol-2-ylcarbamoyl}phenyl)-2-methylacrylic acid]: 0.73 nM. The value for `CCCOC(c1cccc(-c2csc(NC(=O)c3cc(Cl)c(/C=C(\C)C(=O)O)c(Cl)c3)n2)c1OC)C1CCCCC1` (centres unmarked) [Compound B1102] was 2.86 nM; that for `CCC(CC)OCc1cccc(-c2csc(NC(=O)c3cc(Cl)c(/C=C(\C)C(=O)O)c(Cl)c3)n2)c1OC` [Compound B1892, (E)-3-(2,6-dichloro-4-{4-[3-(1-ethylpropyloxymethyl)-2-methyloxyphenyl]thiazol-2-ylcarbamoyl}phenyl)-2-methylacrylic acid] was 11.6 nM.

For the compound `CCCCCCCCC(OC)c1cccc(-c2csc(NC(=O)c3cc(F)c(C=C(C)C(=O)O)c(F)c3)n2)c1F` (centres unmarked) [Compound B28, 3-(2,6-difluoro-4-{4-[2-fluoro-3-(1-methyloxynonyl)phenyl]thiazol-2-ylcarbamoyl}phenyl)-2-methylacrylic acid], the EC50 was determined as 0.79 nM.

With `COc1c(-c2csc(NC(=O)c3cc(Cl)c(/C=C(\C)C(=O)O)c(Cl)c3)n2)cccc1C(CC(C)(C)C)OC` (centres unmarked) [Compound B1054, (E)-3-(2,6-dichloro-4-{4-[2-methyloxy-3-(1-methyloxy-3,3-dimethylbutyl)phenyl]thiazol-2-ylcarbamoyl}phenyl)-2-methylacrylic acid], the EC50 was determined as 19.9 nM. For the compound `CC(=Cc1c(Cl)cc(C(=O)Nc2nc(-c3cccc(CCCOCCC(C)(C)C)c3F)cs2)cc1Cl)C(=O)O` [Compound B85, 3-[2,6-dichloro-4-(4-[3-[3-(3,3-dimethylbutyloxy)propyl]-2-fluorophenyl]thiazol-2-ylcarbamoyl)phenyl]-2-methylacrylic acid], the EC50 was found to be 0.88 nM. With `CCCCOCc1cccc(-c2csc(NC(=O)c3cc(Cl)c(/C=C(\C)C(=O)O)c(Cl)c3)n2)c1OC` [Compound B1995, (E)-3-{4-[4-(3-butyloxymethyl-2-methyloxyphenyl)thiazol-2-ylcarbamoyl]-2,6-dichlorophenyl}-2-methylacrylic acid], the EC50 came out at 10.9 nM. Next, `CCCCOCCCc1cccc(-c2csc(NC(=O)c3cc(F)c(/C=C(\C)C(=O)O)c(F)c3)n2)c1OC` [Compound B419, (E)-3-(4-{4-[3-(3-butyloxypropyl)-2-methyloxyphenyl]thiazol-2-ylcarbamoyl}-2,6-difluorophenyl)-2-methylacrylic acid]: 14.6 nM. Turning to `CCCCCCCOc1cccc(-c2csc(NC(=O)c3cc(Cl)c(/C=C(\C)C(=O)O)c(Cl)c3)n2)c1OC` [Compound B1999, (E)-3-{2,6-dichloro-4-[4-(3-heptyloxy-2-methyloxyphenyl)thiazol-2-ylcarbamoyl]phenyl}-2-methylacrylic acid], the EC50 is 13.2 nM. Take `CCCCCCCOCc1cccc(-c2csc(NC(=O)c3cc(Cl)c(/C=C(\C)C(=O)O)c(Cl)c3)n2)c1OC` [Compound B1991, (E)-3-{2,6-dichloro-4-[4-(3-heptyloxymethyl-2-methyloxyphenyl)thiazol-2-ylcarbamoyl]phenyl}-2-methylacrylic acid]: the EC50 is 13.2 nM. As for `CCCCC(OCCC)c1cccc(-c2csc(NC(=O)c3cc(F)c(C=C(C)C(=O)O)c(F)c3)n2)c1F` (centres unmarked) [Compound B41, 3-(2,6-difluoro-4-{4-[2-fluoro-3-(1-n-propyloxypentyl)phenyl]thiazol-2-ylcarbamoyl}phenyl)-2-methylacrylic acid], the EC50 worked out at 0.67 nM. Regarding `CCCCCCc1cccc2c1OCc1sc(NC(=O)c3cc(Cl)c(/C=C(\C)C(=O)O)c(Cl)c3)nc1-2` [Compound A1316, (E)-3-[2,6-dichloro-4-(6-hexyl-4H-chromeno[4,3-d]thiazol-2-ylcabamoyl)phenyl]-2-methylacrylic acid], the EC50 was 5.29 nM.

`CCCC(CCc1cccc2c1CCc1sc(NC(=O)c3cc(F)c(C=C(C)C(=O)O)c(F)c3)nc1-2)OC` (centres unmarked) [Compound A12, 3-{2,6-difluoro-4-[4,5-dihydro-6-(3-methyloxyhexyl)naphtho[1,2-d]thiazol-2-ylcabamoyl]phenyl}-2-methylacrylic acid]: the EC50 is 0.8 nM.

`CCCCCCOCc1cccc(-c2csc(NC(=O)c3cc(Cl)c(/C=C(\C)C(=O)O)c(Cl)c3)n2)c1OC` [Compound B1993, (E)-3-{2,6-dichloro-4-[4-(3-hexyloxymethyl-2-methyloxyphenyl)thiazol-2-ylcarbamoyl]phenyl}-2-methylacrylic acid]: the EC50 was 13.9 nM. On to `COc1c(COCC(C)(C)C)cccc1-c1csc(NC(=O)c2cc(F)c(/C=C(\C)C(=O)O)c(F)c2)n1` [Compound B1933, (E)-3-(4-{4-[3-(2,2-dimethylpropyloxymethyl)-2-methyloxyphenyl]thiazol-2-ylcarbamoyl}-2,6-difluorophenyl)-2-methylacrylic acid], for which the EC50 was determined as 7.88 nM.
